Data from patent US7259011B2, “Pluripotent adult stem cells” (priority 2004, dated 2007).
Read-outs that look alike come from different tables or passages of the source.

System: PPASCs
Source text: PPASCs were thawed or trypsinized from expansion cultures and plated at 20,000 cells per 16 mm well in 24-well gelatin-coated culture plates (Corning Glass Works, Corning, N.Y.). All wells contained EMEM and 10% pre-selected horse serum. The control group remained in this medium, while the experimental wells contained media supplemented with dexamethasone (Sigma). Dexamethasone used were logarithmic concentrations from 10^−10 to 10^−6 M. Cultures were fixed and assayed for phenotypes at one-week intervals up to five weeks.
The immunohistochemical protocol typically used was adopted from Romero-Ramos et al. (2002)^3:
8) 0.25 ml of the primary antibody in PBS was added for 60 minutes at 37° C. • Antibodies used: Table 2
10) A second blocking step of 1% Goat Serum in PBS with 0.5% Tween was performed for 20 minutes preceding the addition of the secondary antibody. • 11) The cells received 0.25 ml of horse-radish peroxidase conjugated IgG secondary antibody that was diluted with PBS to a concentration of 1:1500 or secondary antibody conjugated with either FITC or TRITC fluorochrome. • 12) After 30 minutes of incubation at 37° C. with the secondary antibody, the wells were rinsed with PBS five times. If the secondary antibody was conjugated to fluorochrome, photographs were taken after this step. • 13) 0.25 ml of True Blue or DAB solution was added and light protected for up to 20 minutes. • 14) Five rinses of dH2O followed. • 15) Photographs were taken on an Olympus Inverted Scope Model IMT light microscope.

With C[C@@H]1C[C@H]2[C@@H]3CCC4=CC(=O)C=C[C@]4(C)[C@@]3(F)[C@@H](O)C[C@]2(C)[C@@]1(O)C(=O)CO [dex, dexamethasone] the “concentration at which cells containing vesicles (Sudan Black B stained, adipocytes) were observed” value was 10^−9 to 10^−6 M, the “concentration at which induction of endothelial cells reproducibly occurred” value was ≥ 10^−8 M and the “concentration giving the highest quantity of hepatocytes” value was 10^−8 M. The “AFP stained cells (liver; α-fetoprotein)” value (10^−6 M dex) was “+ (+ = 1–5 cells seen per culture well.)”, the “CIICI stained cells (cartilage; type II collagen)” value (from here on “CIICI stained cells”) (10^−6 M dex) was “− (− = no stained cells seen per culture well.)” and the “CNPase stained cells (glial cells)” value (10^−6 M dex) was “− (− = no stained cells seen per culture well.)”. The “CT3 stained cells (cardiac muscle; cardiac troponin T)” value (from here on “CT3 stained cells”) (10^−6 M dex) was “+ (+ = 1–5 cells seen per culture well.)”, the “Desmin stained cells (myogenic precursor cells)” value (“Desmin stained cells” below) (10^−6 M dex) was “+ (+ = 1–5 cells seen per culture well.)” and the “GFAP stained cells (astrocytes)” value (10^−6 M dex) was “− (− = no stained cells seen per culture well.)”. For the same compound, the “IA4 stained cells (smooth muscle; α-smooth muscle actin)” value (from here on “IA4 stained cells”) (10^−6 M dex) was “+ (+ = 1–5 cells seen per culture well.)”, the IL-1β stained cells (10^−6 M dex) was “+ (+ = 1–5 cells seen per culture well.)” and the “LDL uptake (fluorescent labeled acetylated low density lipoprotein, 20 min)” value (“LDL uptake” below) (10^−6 M dex) was “++ (++ = 5–10 cells observed per culture well.)”. For the same compound, the “MF-20 stained cells (skeletal muscle; heavy chain of myosin)” value (“MF-20 stained cells” below) (10^−6 M dex) was “− (− = no stained cells seen per culture well.)”, the “MPIII stained cells (bone; osteopontin)” value (10^−6 M dex) was “− (− = no stained cells seen per culture well.)” and the “P2B1 stained cells (endothelial cells)” value (10^−6 M dex) was “++ (++ = 5–10 cells observed per culture well.)”. For the same compound, the “P4A4 stained cells (endothelial cells)” value (10^−6 M dex) was “+ (+ = 1–5 cells seen per culture well.)”, the “Sudan Black B stained cells (fat)” value (10^−6 M dex) was “++ (++ = 5–10 cells observed per culture well.)” and the “Talin stained cells (fibroblasts)” value (10^−6 M dex) was “− (− = no stained cells seen per culture well.)”. The “Trop I stained cells (cardiac muscle; cardiac troponin I)” value (“Trop I stained cells” for short) (10^−6 M dex) was “+ (+ = 1–5 cells seen per culture well.)”, the “WVIDI stained cells (bone; bone sialoproteins I and II)” value (shortened to “WVIDI stained cells”) (10^−6 M dex) was “− (− = no stained cells seen per culture well.)” and the “AFP stained cells (liver; α-fetoprotein)” value (10^−7 M dex) was “++ (++ = 5–10 cells observed per culture well.)”. For the same compound, the “CIICI stained cells” value (10^−7 M dex) was “+ (+ = 1–5 cells seen per culture well.)”, the “CNPase stained cells (glial cells)” value (10^−7 M dex) was “− (− = no stained cells seen per culture well.)” and the “CT3 stained cells” value (10^−7 M dex) was “++ (++ = 5–10 cells observed per culture well.)”. For the same compound, the “Desmin stained cells” value (10^−7 M dex) was “+ (+ = 1–5 cells seen per culture well.)”, the “GFAP stained cells (astrocytes)” value (10^−7 M dex) was “− (− = no stained cells seen per culture well.)” and the “IA4 stained cells” value (10^−7 M dex) was “++ (++ = 5–10 cells observed per culture well.)”. For the same compound, the IL-1β stained cells (10^−7 M dex) was “+ (+ = 1–5 cells seen per culture well.)”, the “LDL uptake” value (10^−7 M dex) was “++ (++ = 5–10 cells observed per culture well.)” and the “MF-20 stained cells” value (10^−7 M dex) was “− (− = no stained cells seen per culture well.)”. For the same compound, the “MPIII stained cells (bone; osteopontin)” value (10^−7 M dex) was “+ (+ = 1–5 cells seen per culture well.)”, the “P2B1 stained cells (endothelial cells)” value (10^−7 M dex) was “+ (+ = 1–5 cells seen per culture well.)” and the “P4A4 stained cells (endothelial cells)” value (10^−7 M dex) was “+ (+ = 1–5 cells seen per culture well.)”. For the same compound, the “Sudan Black B stained cells (fat)” value (10^−7 M dex) was “++ (++ = 5–10 cells observed per culture well.)”, the “Talin stained cells (fibroblasts)” value (10^−7 M dex) was “++ (++ = 5–10 cells observed per culture well.)” and the “Trop I stained cells” value (10^−7 M dex) was “+ (+ = 1–5 cells seen per culture well.)”. The “WVIDI stained cells” value (10^−7 M dex) was “+ (+ = 1–5 cells seen per culture well.)”, the “AFP stained cells (liver; α-fetoprotein)” value (10^−8 M dex) was “+ (+ = 1–5 cells seen per culture well.)” and the “CIICI stained cells” value (10^−8 M dex) was “++ (++ = 5–10 cells observed per culture well.)”. The “CNPase stained cells (glial cells)” value (10^−8 M dex) was “+ (+ = 1–5 cells seen per culture well.)”, the “CT3 stained cells” value (10^−8 M dex) was “+ (+ = 1–5 cells seen per culture well.)” and the “Desmin stained cells” value (10^−8 M dex) was “+ (+ = 1–5 cells seen per culture well.)”. For the same compound, the “GFAP stained cells (astrocytes)” value (10^−8 M dex) was “− (− = no stained cells seen per culture well.)”, the “IA4 stained cells” value (10^−8 M dex) was “+ (+ = 1–5 cells seen per culture well.)” and the IL-1β stained cells (10^−8 M dex) was “+ (+ = 1–5 cells seen per culture well.)”. For the same compound, the “LDL uptake” value (10^−8 M dex) was “+ (+ = 1–5 cells seen per culture well.)”, the “MF-20 stained cells” value (10^−8 M dex) was “+ (+ = 1–5 cells seen per culture well.)” and the “MPIII stained cells (bone; osteopontin)” value (10^−8 M dex) was “+ (+ = 1–5 cells seen per culture well.)”. For the same compound, the “P2B1 stained cells (endothelial cells)” value (10^−8 M dex) was “− (− = no stained cells seen per culture well.)”, the “P4A4 stained cells (endothelial cells)” value (10^−8 M dex) was “+ (+ = 1–5 cells seen per culture well.)” and the “Sudan Black B stained cells (fat)” value (10^−8 M dex) was “+ (+ = 1–5 cells seen per culture well.)”. For the same compound, the “Talin stained cells (fibroblasts)” value (10^−8 M dex) was “++ (++ = 5–10 cells observed per culture well.)”, the “Trop I stained cells” value (10^−8 M dex) was “+ (+ = 1–5 cells seen per culture well.)” and the “WVIDI stained cells” value (10^−8 M dex) was “+ (+ = 1–5 cells seen per culture well.)”. For the same compound, the “AFP stained cells (liver; α-fetoprotein)” value (10^−9 M dex) was “+ (+ = 1–5 cells seen per culture well.)”, the “CIICI stained cells” value (10^−9 M dex) was “+ (+ = 1–5 cells seen per culture well.)” and the “CNPase stained cells (glial cells)” value (10^−9 M dex) was “++ (++ = 5–10 cells observed per culture well.)”. For the same compound, the “CT3 stained cells” value (10^−9 M dex) was “− (− = no stained cells seen per culture well.)”, the “Desmin stained cells” value (10^−9 M dex) was “++ (++ = 5–10 cells observed per culture well.)” and the “GFAP stained cells (astrocytes)” value (10^−9 M dex) was “++ (++ = 5–10 cells observed per culture well.)”. The “IA4 stained cells” value (10^−9 M dex) was “− (− = no stained cells seen per culture well.)”, the IL-1β stained cells (10^−9 M dex) was “− (− = no stained cells seen per culture well.)” and the “LDL uptake” value (10^−9 M dex) was “− (− = no stained cells seen per culture well.)”. For the same compound, the “MF-20 stained cells” value (10^−9 M dex) was “+ (+ = 1–5 cells seen per culture well.)”, the “MPIII stained cells (bone; osteopontin)” value (10^−9 M dex) was “+ (+ = 1–5 cells seen per culture well.)” and the “P2B1 stained cells (endothelial cells)” value (10^−9 M dex) was “− (− = no stained cells seen per culture well.)”. The “P4A4 stained cells (endothelial cells)” value (10^−9 M dex) was “− (− = no stained cells seen per culture well.)”, the “Sudan Black B stained cells (fat)” value (10^−9 M dex) was “− (− = no stained cells seen per culture well.)” and the “Talin stained cells (fibroblasts)” value (10^−9 M dex) was “+ (+ = 1–5 cells seen per culture well.)”. For the same compound, the “Trop I stained cells” value (10^−9 M dex) was “− (− = no stained cells seen per culture well.)”, the “WVIDI stained cells” value (10^−9 M dex) was “+ (+ = 1–5 cells seen per culture well.)” and the “AFP stained cells (liver; α-fetoprotein)” value (10^−10 M dex) was “− (− = no stained cells seen per culture well.)”. The “CIICI stained cells” value (10^−10 M dex) was “− (− = no stained cells seen per culture well.)”, the “CNPase stained cells (glial cells)” value (10^−10 M dex) was “++ (++ = 5–10 cells observed per culture well.)” and the “CT3 stained cells” value (10^−10 M dex) was “− (− = no stained cells seen per culture well.)”. For the same compound, the “Desmin stained cells” value (10^−10 M dex) was “+ (+ = 1–5 cells seen per culture well.)”, the “GFAP stained cells (astrocytes)” value (10^−10 M dex) was “+ (+ = 1–5 cells seen per culture well.)” and the “IA4 stained cells” value (10^−10 M dex) was “− (− = no stained cells seen per culture well.)”. The IL-1β stained cells (10^−10 M dex) was “− (− = no stained cells seen per culture well.)”, the “LDL uptake” value (10^−10 M dex) was “− (− = no stained cells seen per culture well.)” and the “MF-20 stained cells” value (10^−10 M dex) was “+ (+ = 1–5 cells seen per culture well.)”. For the same compound, the “MPIII stained cells (bone; osteopontin)” value (10^−10 M dex) was “+ (+ = 1–5 cells seen per culture well.)”, the “P2B1 stained cells (endothelial cells)” value (10^−10 M dex) was “− (− = no stained cells seen per culture well.)” and the “P4A4 stained cells (endothelial cells)” value (10^−10 M dex) was “− (− = no stained cells seen per culture well.)”. The “Sudan Black B stained cells (fat)” value (10^−10 M dex) was “− (− = no stained cells seen per culture well.)”, the “Talin stained cells (fibroblasts)” value (10^−10 M dex) was “− (− = no stained cells seen per culture well.)” and the “Trop I stained cells” value (10^−10 M dex) was “− (− = no stained cells seen per culture well.)”. The “WVIDI stained cells” value (10^−10 M dex) was “+ (+ = 1–5 cells seen per culture well.)”, the “Von Kossa's stain of multilayered nodules (mineral)” value (after 3 weeks of treatment) was “mineralized” and the “Alcian blue pH 1.0 staining (cartilage)” value (pH 1) was “sulfated proteoglycans were detected”.
